Experimental data published in US7122523B2, “Methods for inhibiting tumor cell proliferation” (University of Southern California, priority 2001, dated 2006).

Assays:
Format in all cases: cell-based
[1] = test system: Human Primary Tumor Cells; assay: Clonigenic assay, Chi Square analysis of tumor-type specificity over all samples
Protocol: (§1) Primary and metastatic tumors obtained from the Department of Obstetrics and Gynecology Pathology Section and the Surgical Pathology Division of Los Angeles County/University of Southern California were minced into pieces less than 2 mm in diameter in the presence of RPMI-1640 (Gibco, Grand Island, NTY) containing 15% heat-inactivated fetal calf serum. Each gram of tumor tissue was treated with 10–20 mL of enzyme medium, consisting of Hanks' balanced salt solution with 0.03% DNAse (500 Kunitz units/mL; Sigma Chemical Co., St. Louis, Mo.) and 0.14% collagenase type I (Sigma). Tumor fragments were stirred for 90 minutes at 37° C. in the presence of 5% CO2. After enzymatic digestion, the free cells were decanted through 40-gauge mesh strainers and centrifuged at 200×g for 10 minutes. The supernatant was removed and viable cells were resuspended in RPMI 1640. The cell number was determined using a hematocytometer and 0.04% trypan blue dye. The cells were then centrifuged and the pellet resuspended in RPMI 1640 at 5×10^5 cells/mL.
(§2) Human cancer cells were obtained from operative specimens provided by the Division of Gynecologic Oncology, Department of Obstetrics and Gynecology, or the Department of Surgical Pathology of Los Angeles County/University of Southern California School of Medicine. Tumor cells were maintained in vitro in RPMI 1640 medium supplemented with 15% heat-inactivated fetal calf serum, 100 μg/mL streptomycin, fungizone 25 μg/mL, and 100 μ/mL penicillin.
(§3) Cells were cultured on an underlayer of 0.5% agarose (Bethesda Research Labs, Bethesda, Md.) prepared from a 3% stock of agarose with added penicillin (100 units/mL), streptomycin (100 μg/mL), and fungizone (1.25 μg/mL) (GIBCO) as per a modification of an established procedure. The cloning efficiency of this assay varied depending upon the source of the tissue. One milliliter of this 0.5% agarose mixture was added to each 16×16-mm well of a 24-well plate and the plates were refrigerated for 10 minutes at 4° C. Cells were suspended in 0.6% agarose in RPMI-1640 supplemented with antibiotics and 15% fetal calf serum. One aliquot (0.5 mL) of cell suspension was added to each underlaver at a final concentration of 5×10^4 cells/well, and the plates were refrigerated 10 minutes at 4° C.
(§4) After a 72-hour incubation at 37° C., 5 μCi of tritiated thymidine (specific activity 18.2 Ci/mmol; New England Nuclear, Boston, Mass.) was layered over each well, and the plates were returned to the incubator for an additional 24 hours, incorporation of thymidine was terminated by transferring the agarose layers to 10-mL glass centrifuge tubes (Kimble, Division of Owens, Ill.) and boiling the tubes for 15 minutes in a water bath. The volume was brought to 8 mL, the tubes were centrifuged, and the pellets were washed with phosphate-buffered saline and then dissolved in 3 mL of 0.85 N KOH for 1 hour at 80° C. The tubes were cooled on ice and the hydrolysates were precipitated by adding 30 μL of 1% human serum albumin (Sigma) and 2.4 mL of ice-cold trichloroacetic acid. After overnight storage at 4° C., precipitates were collected by centrifugation. Pellets were washed with 5% trichloroacetic acid, dissolved in 0.3 mL of 0.075 N KOH, and transferred to scintillation vials to which 5 mL of Liquiscint (National Diagnostics, Somerville, N.J.) were added. Radioactivity per vial was measured in a Nuclear-Chicago liquid scintillation counter.

[2] = test system: Cystic poorly differentiated endometroid carcinoma of ovary; assay: Human tumor cell clonigenic assay (tritiated thymidine incorporation); conditions: Sample 30, Cystic poorly differentiated endometroid carcinoma of ovary; AII(1–7) 0.1 ng/ml–10 μg/ml
Protocol: as §1, §2, §3, §4

[3] = test system: Metastatic colon adenocarcinoma; assay: as above; conditions: Sample 26, Metastatic colon adenocarcinoma; AII(1–7) 0.1 ng/ml–10 μg/ml
Protocol: as §1, §2, §3, §4

[4] = test system: Serous tumor of low malignant potential; assay: as above; conditions: Sample 6, Serous tumor of low malignant potential; AII(1–7) 0.1 ng/ml–10 μg/ml
Protocol: as §1, §2, §3, §4

[5] = test system: Recurrent moderately differentiated colonic adenocarcinoma; assay: as above; conditions: Sample 19, Recurrent moderately differentiated colonic adenocarcinoma; AII(1–7) 0.1 ng/ml–10 μg/ml
Protocol: as §1, §2, §3, §4

Uterine Carcinosarcoma = assay: as above; conditions: Sample 17, Uterine Carcinosarcoma; AII(1–7) 0.1 ng/ml–10 μg/ml
Protocol: as §1, §2, §3, §4

Ovarian adenocarcinoma = assay: as above; conditions: for Effect of AII(1–7) on proliferation: AII(1–7) 0.1 ng/ml–10 μg/ml; for IC50 (ng/ml) of AII(1–7): proliferation
Protocol: as §1, §2, §3, §4

[6] = test system: Metastatic, recurrent moderately to poorly differentiated colonic adenocarcinoma; assay: as above; conditions: Sample 34, Metastatic, AII(1–7) 0.1 ng/ml–10 μg/ml
Protocol: as §1, §2, §3, §4

[7] = test system: Ovarian Serous papillary carcinoma; assay: as above; conditions: Sample 31, Ovarian Serous papillary carcinoma
Protocol: as §1, §2, §3, §4

Leiomyosarcoma = assay: as above; conditions: Sample 1, Leiomyosarcoma; AII(1–7) 0.1 ng/ml–10 μg/ml
Protocol: as §1, §2, §3, §4

[8] = test system: Ovarian papillary serous carcinoma; assay: as above; conditions: Sample 2, Ovarian papillary serous carcinoma
Protocol: as §1, §2, §3, §4

[9] = test system: Colonic adenocarcinoma, Gr 3–4, moderately to poorly differentiated; assay: as above; conditions: Sample 36, Colonic adenocarcinoma
Protocol: as §1, §2, §3, §4

[10] = test system: Ovarian carcinoma-clear cell; assay: as above; conditions: Sample 3, Ovarian carcinoma-clear cell; AII(1–7) 0.1 ng/ml–10 μg/ml
Protocol: as §1, §2, §3, §4

Breast adenocarcinoma = assay: as above; conditions: for Effect of AII(1–7) on proliferation: AII(1–7) 0.1 ng/ml–10 μg/ml; for IC50 (ng/ml) of AII(1–7): proliferation
Protocol: as §1, §2, §3, §4

[11] = test system: Cervical squamous cell carcinoma; assay: as above
Protocol: as §1, §2, §3, §4

[12] = test system: Ovarian Cancer-High Grade Clear Cell Carcinoma; assay: as above; conditions: Sample 16, Ovarian Cancer-High Grade Clear Cell Carcinoma; AII(1–7) 0.1 ng/ml–10 μg/ml
Protocol: as §1, §2, §3, §4

[13] = test system: Squamous Cell Carcinoma of the Cervix, gr 3; assay: as above; conditions: Sample 12, Squamous Cell Carcinoma of the Cervix, AII(1–7) 0.1 ng/ml–10 μg/ml
Protocol: as §1, §2, §3, §4

[14] = test system: Metastatic uterine carcinosarcoma to the ovary; assay: as above; conditions: Sample 5, Metastatic uterine carcinosarcoma to the ovary; AII(1–7) 0.1 ng/ml–10 μg/ml
Protocol: as §1, §2, §3, §4

[15] = test system: Invasive, moderately differentiated adenocarcinoma of colon; assay: as above; conditions: Sample 29, Invasive, AII(1–7) 0.1 ng/ml–10 μg/ml
Protocol: as §1, §2, §3, §4

[16] = test system: Endometrial adenocarcinoma; assay: as above; conditions: for Effect of AII(1–7) on proliferation: AII(1–7) 0.1 ng/ml–10 μg/ml; for IC50 (ng/ml) of AII(1–7): proliferation
Protocol: as §1, §2, §3, §4

Colon adenocarcinoma = assay: as above; conditions: Sample 25, Colon adenocarcinoma
Protocol: as §1, §2, §3, §4

[17] = test system: Metastatic Ovarian Papillary Carcinoma to Omentum; assay: as above; conditions: Sample 13, Metastatic Ovarian Papillary Carcinoma to Omentum; AII(1–7) 0.1 ng/ml–10 μg/ml
Protocol: as §1, §2, §3, §4

[18] = Sample 27, Ovarian adenocarcinoma
[19] = Sample 32, Ovarian adenocarcinoma
[20] = Sample 7, Breast adenocarcinoma
[21] = Sample 10, Breast adenocarcinoma
[22] = Sample 20, Breast adenocarcinoma
[23] = Sample 21, Breast adenocarcinoma
[24] = Sample 24, Breast adenocarcinoma
[25] = Sample 28, Breast adenocarcinoma
[26] = Sample 4, Endometrial adenocarcinoma
[27] = Sample 8, Endometrial adenocarcinoma
[28] = Sample 11, Endometrial adenocarcinoma
[29] = Sample 18, Endometrial adenocarcinoma
[30] = Sample 22, Endometrial adenocarcinoma
[31] = Sample 23, Endometrial adenocarcinoma

## CC[C@H](C)[C@H](NC(=O)[C@H](Cc1ccc(O)cc1)NC(=O)[C@@H](NC(=O)[C@H](CCCNC(=N)N)NC(=O)[C@@H](N)CC(=O)O)C(C)C)C(=O)N[C@@H](Cc1c[nH]cn1)C(=O)N1CCC[C@H]1C(=O)O [AII(1–7), Asp-Arg-Val-Tyr-Ile-His-Pro]
[1]; All adenocarcinoma: 14 decreased, 8 not affected
  tumors affected (proliferation decreased): 63.6%
[1]; Breast infiltrating ductal adenocarcinoma: 4 decreased, 2 not affected
  tumors affected (proliferation decreased): 66.7%
[1]; Uterine adenocarcinoma and breast infiltrating ductal adenocarcinoma: 9 decreased, 4 not affected
  tumors affected (proliferation decreased): 69.2%
[1]; Uterine adenocarcinoma: 5 decreased, 2 not affected
  tumors affected (proliferation decreased): 71.4%
[1]; Uterine, ovarian and breast adenocarcinomas: 11 decreased, 5 not affected
  tumors with decreased proliferation: 68.8%
[1]; remaining tumors not adenocarcinoma: 2 decreased, 10 not affected
  tumors affected (proliferation decreased): 16.7%
[1]; remaining tumors not of breast infiltrating ductal adenocarcinoma origin: 12 decreased, 16 not affected
  tumors affected (proliferation decreased): 42%
[1]; remaining tumors not of uterine adenocarcinoma origin: 11 decreased, 16 not affected
  tumors affected (proliferation decreased): 40.7%
[1]; remaining tumors not of uterine or breast adenocarcinoma origin: 7 decreased, 14 not affected
  tumors affected (proliferation decreased): 33.3%
[1]; remaining tumors not of uterine, ovarian or breast adenocarcinoma origin: 5 decreased, 13 not affected
  tumors with decreased proliferation: 27.8%
[2]
  Effect of AII(1–7) on proliferation: No Effect
[3]
  Effect of AII(1–7) on proliferation: Variable
[4]
  Effect of AII(1–7) on proliferation: No Effect
[5]
  Effect of AII(1–7) on proliferation: No Effect
Uterine Carcinosarcoma
  Effect of AII(1–7) on proliferation: No Effect
Ovarian adenocarcinoma; [18]
  Effect of AII(1–7) on proliferation: Decreased
  IC50 (ng/ml) of AII(1–7): 3.6 ng/mL
Ovarian adenocarcinoma; [19]
  Effect of AII(1–7) on proliferation: Decreased
  IC50 (ng/ml) of AII(1–7): 3.4 ng/mL
Ovarian adenocarcinoma; Sample 33, Ovarian adenocarcinoma
  Effect of AII(1–7) on proliferation: No Effect
[6]
  Effect of AII(1–7) on proliferation: No Effect
[7]; AII(1–7) 0.1 ng/ml–10 μg/ml
  Effect of AII(1–7) on proliferation: Decreased
[7]; proliferation
  IC50 (ng/ml) of AII(1–7): 2.34 ng/mL
Leiomyosarcoma
  Effect of AII(1–7) on proliferation: No Effect
[8]; AII(1–7) 0.1 ng/ml–10 μg/ml
  Effect of AII(1–7) on proliferation: Decreased
[8]; proliferation
  IC50 (ng/ml) of AII(1–7): 3.0 ng/mL
[9]; AII(1–7) 0.1 ng/ml–10 μg/ml
  Effect of AII(1–7) on proliferation: Decreased
[9]; proliferation
  IC50 (ng/ml) of AII(1–7): 2.55 ng/mL
[10]
  Effect of AII(1–7) on proliferation: No Effect
Breast adenocarcinoma; [20]
  Effect of AII(1–7) on proliferation: Decreased
  IC50 (ng/ml) of AII(1–7): 2.73 ng/mL
Breast adenocarcinoma; [21]
  Effect of AII(1–7) on proliferation: No Effect
  IC50 (ng/ml) of AII(1–7): No Effect
Breast adenocarcinoma; [22]
  Effect of AII(1–7) on proliferation: Decreased
  IC50 (ng/ml) of AII(1–7): 0.3 ng/mL
Breast adenocarcinoma; [23]
  Effect of AII(1–7) on proliferation: No Effect
  IC50 (ng/ml) of AII(1–7): No Effect
Breast adenocarcinoma; [24]
  Effect of AII(1–7) on proliferation: Decreased
  IC50 (ng/ml) of AII(1–7): 4.25 ng/mL
Breast adenocarcinoma; [25]
  Effect of AII(1–7) on proliferation: Decreased
  IC50 (ng/ml) of AII(1–7): 2.97 ng/mL
[11]; Sample 37, Cervical squamous cell adenocarcinoma, proliferation
  IC50 (ng/ml) of AII(1–7): 2.73 ng/mL
[11]; Sample 37, Cervical squamous cell carcinoma, AII(1–7) 0.1 ng/ml–10 μg/ml
  Effect of AII(1–7) on proliferation: Decreased
[12]
  Effect of AII(1–7) on proliferation: No Effect
[13]
  Effect of AII(1–7) on proliferation: No Effect
[14]
  Effect of AII(1–7) on proliferation: Equivocal
[15]
  Effect of AII(1–7) on proliferation: No Effect
[16]; [26]
  Effect of AII(1–7) on proliferation: Decreased
  IC50 (ng/ml) of AII(1–7): 1.0 ng/mL
[16]; [27]
  Effect of AII(1–7) on proliferation: Decreased
  IC50 (ng/ml) of AII(1–7): 1.0 ng/mL
[16]; Sample 9, Endometrial adenocarcinoma
  Effect of AII(1–7) on proliferation: Decreased
[16]; [28]
  Effect of AII(1–7) on proliferation: No Effect
  IC50 (ng/ml) of AII(1–7): No Effect
[16]; [29]
  Effect of AII(1–7) on proliferation: No Effect
  IC50 (ng/ml) of AII(1–7): No Effect
[16]; [30]
  Effect of AII(1–7) on proliferation: Decreased
  IC50 (ng/ml) of AII(1–7): 0.1 ng/mL
[16]; [31]
  Effect of AII(1–7) on proliferation: Decreased
  IC50 (ng/ml) of AII(1–7): 4.0 ng/mL
Colon adenocarcinoma; AII(1–7) 0.1 ng/ml–10 μg/ml
  Effect of AII(1–7) on proliferation: Decreased
Colon adenocarcinoma; proliferation
  IC50 (ng/ml) of AII(1–7): 4.75 ng/mL
[17]
  Effect of AII(1–7) on proliferation: No Effect
